Results reported in article PMC11413503, “SCR‐7952, a highly selective MAT2A inhibitor, demonstrates synergistic antitumor activities in combination with the S‐adenosylmethionine‐competitive or the methylthioadenosine‐cooperative protein arginine methyltransferase 5 inhibitors in methylthioadenosine phosphorylase‐deleted tumors” (MedComm, 2024).
Several values for one entry are separate records, joined by “and”; a condition that tells them apart may be missing. Equal values may be shown once. Read-outs that look alike come from different tables or passages of the source.

Tests used:
FANCA = test: RT-PCR of FANCA and DI-containing transcripts; assay type: cell-based; settings: 72 h
HCT116 MTAP−/− xenograft = test: Xenograft combination treatment study; assay type: in vivo, mice; settings: JNJ-64619178 1.0 mg/kg alone
Procedure: (§1) Subcutaneous injections of HCT116 MTAP ^−/− cells were performed (5 × 10^6 cells in 100 µL) into Nu/Nu female mice. Mice were observed daily for the development of tumors. Six days after tumor implantation, mice were randomly distributed into different groups. SCR‐7952, AG‐270, JNJ‐64619178, or vehicle (water with 5% N‐methylpyrrolidone and 10% solutol HS‐15) were daily administrated by oral gavage. Tumor volumes and body weights were recorded three times per week. Tumor volumes were measured in two dimensions using a caliper, and the volume was expressed in mm^3 using the formula: V = (L × W × W)/2, where V is tumor volume, L is tumor length (the longest tumor dimension), and W is tumor width (perpendicular to L). The tumor growth inhibition rate (TGI%) of each dosing group was calculated according to the following formula: %TGI = (1 − (V t(treatment group) − V 0(treatment group))/(V t(vehicle group) − V 0(vehicle group))) × 100%, where V t is average tumor volume of a dosing group on a specific day, V 0 is average tumor volume of a dosing group on the initial day. At the end of the study, plasma and tumor tissues were collected and stored at −80°C for further measurement.

SDMA [1] = test: Immunoblot of SDMA (PRMT5-dependent mark); assay type: cell-based; settings: 96 h, HCT116 MTAP−/− cells
SDMA [2] = test: Tumor SDMA levels in combination xenograft study; assay type: in vivo, mice; settings: JNJ-64619178 1.0 mg/kg alone
[3] = system: MTAP-deleted squamous NSCLC; set-up: method as in NCT04794699; settings: 3/4 patients, up to 50% circulating tumor DNA decrease; ref NCT04794699; cited from earlier work
MTAP−/− cancer cells = system: MTAP−/− cancer cells; set-up: method as in earlier work; settings: read-out: IC50, antiproliferation on MTAP−/− cancer cells; cited from earlier work
MAT2A [4] = target: T1, MAT2A (Homo sapiens, UniProt P31153); set-up: method as in earlier work; settings: read-out: IC50, inhibition of MAT2A activity; cited from earlier work
T1 construct: purchased Pharmaron 210405‐HWR‐20210429

[5] = Plasma pharmacokinetics after multiple administration in xenograft mice; assay type: in vivo; settings: AG-270 200 mg/kg
UGT1A1 = system: UGT1A1; set-up: method as in PMID 16765731; settings: off-target activity of AG-270; cited from earlier work
[6] = Plasma bilirubin in mice after oral treatment; assay type: in vivo; settings: AG-270 200 mg/kg, 2 h after final dose
A549 = test: Proliferation assay (CellTiter-Glo); assay type: cell-based; settings: Homo sapiens, A549, 144 h; MTAP-deleted, 6-day; read-out: IC50, anti-proliferation A549
Procedure: (§2) HCT116 colon carcinoma parental (WT) cells with MTAP ^−/− isogenic clone were established by KYinno Biotechnology Co., Ltd. (Beijing, China). A549, MIA PaCa‐2, and WI‐38 cell lines were obtained from ATCC. NCI‐H838 was obtained from Cobioer Biosciences. HCT116 WT and KO MTAP cells were cultured in McCoy's 5A media containing 10% FBS. A549 cells were cultured in DMEM media containing 10% FBS. MIA PaCa‐2 cells were cultured in DMEM media containing 10% FBS and 2.5% horse serum. NCI‐H838 cells were cultured in PRMI 1640 media containing 10% FBS. WI‐38 cells were cultured in EMEM media containing 10% FBS.
(§3) Cells were plated in 96‐well cell culture plates and allowed to attach overnight at 37°C in 5% CO2. Compounds diluted in DMSO were added to cells in a dose–response format for 6 days. The final concentration of DMSO was 0.1% in media. Cell proliferation was measured using CellTiter‐Glo Cell Viability Assay (Promega). The IC50 values were calculated using the GraphPad Prism 9. Drug combination effects were analyzed using Combenefit software.[45]

NCI-H838 = test: Proliferation assay (CellTiter-Glo); assay type: cell-based; settings: Homo sapiens, NCI-H838, 144 h; MTAP-deleted, 6-day; read-out: IC50, anti-proliferation NCI-H838
Procedure: as §2, §3

HCT116 MTAP−/− cells [7] = test: Proliferation assay (CellTiter-Glo); assay type: cell-based; settings: Homo sapiens, HCT-116, 144 h; 6-day treatment; read-out: IC50, anti-proliferation HCT116 MTAP−/−
Procedure: as §2, §3

HCT116 WT cells = test: Proliferation assay (CellTiter-Glo); assay type: cell-based; settings: Homo sapiens, HCT-116, 144 h; 6-day treatment; read-out: IC50, anti-proliferation HCT116 WT
Procedure: as §2, §3

MIA PaCa-2 = test: Proliferation assay (CellTiter-Glo); assay type: cell-based; settings: Homo sapiens, MIA PaCa-2, 144 h; MTAP-deleted, 6-day; read-out: IC50, anti-proliferation MIA PaCa-2
Procedure: as §2, §3

[8] = system: WI-38 (human fetal lung fibroblast cells); test: Proliferation assay (CellTiter-Glo); assay type: cell-based; settings: Homo sapiens, WI-38, MTAP WT; read-out: IC50, anti-proliferation WI-38
Procedure: as §2, §3

HCT116 MTAP−/− cells [9] = test: Intracellular SAM inhibition assay; assay type: cell-based; settings: Homo sapiens, HCT-116, 6 h, read-out: IC50, cellular SAM levels
Procedure: MAT2A inhibition in the cellular environment was monitored by measurement of the abundance of its product SAM in HCT116 MTAP ^−/− cells. HCT116 MTAP ^−/− cells were plated in 96‐well cell culture plates at 50,000 cells per well and allowed to attach overnight at 37°C in 5% CO2. Compounds were added in a dose–response format to generate a 10‐point dose–response curve. Doses were started at a 10 µM top concentration with 1:5 serial dilution. After 6 h of incubation, the medium was removed and cells were extracted with 50% methanol containing 1 M acetic acid for SAM metabolite measurement by UPLC‐MS/MS.
The standard SAM solution was prepared in a surrogate matrix of 50% methanol containing 1 M acetic acid with a concentration range of 3–1000 ng/mL. The quality control sample was prepared in the same surrogate matrix. SAM‐d 3 was used as the internal standard (IS). A Waters UPLC system coupled with a SCIEX Triple Quad™ 6500^+ mass spectrometer […] was used to analyze the samples. Samples were separated on an ACQUITY UPLC® BEH amide column (2.1 × 50 mm, 1.7 µm). The mobile phase consisted of 5% acetonitrile containing 5 mM NH4OAc and 1% (v/v) formic acid (A) and 95% acetonitrile containing 5 mM NH4OAc and 1% (v/v) formic acid (B). […] SAM and SAM‐d 3 were detected with multiple‐reaction monitoring of a mass transition pair at m/z 399.2/250.2 and […], respectively.

[10] = system: HCT116 MTAP−/− subcutaneous xenograft; test: Xenograft efficacy study, monotherapy; assay type: in vivo, mice; settings: AG-270 200 mg/kg oral
Procedure: An efficacy study in an HCT116 MTAP ^−/− subcutaneous xenograft mouse model was performed to evaluate the antitumor effect of SCR‐7952, with once daily (q.d.) oral dosing of 0.25, 0.5, 1.0, or 3.0 mg/kg, respectively.
Nu/Nu female mice (6–12 weeks old; Beijing Vital River Laboratory Animal Technology Co., Ltd.) were used for in vivo xenograft studies. All experimental procedures involving animals and their care were in accordance with the State Council Regulations for Laboratory Animal Management (Enacted in 1988) and approved by the Institutional Animal Care and Use Committee of Jiangsu Simcere Pharmaceutical Co., Ltd. (IACUC; Approval No. AP‐056).
as §1

[11] = system: mixed-lineage leukemia-rearranged (MLLr) leukemia; set-up: method as in PMID 32456310; settings: read-out: IC50, antiproliferation in MLLr leukemia; cited from earlier work
MAT2A [12] = target: T1, MAT2A; set-up: method as in PMID 28553945; settings: chemical assay; cited from earlier work
Huh-7 cells = system: Huh-7 cells; set-up: method as in PMID 28553945; settings: read-out: IC50, antiproliferative effect on Huh-7 cells; cited from earlier work

T1 sequence (P31153 whole entry): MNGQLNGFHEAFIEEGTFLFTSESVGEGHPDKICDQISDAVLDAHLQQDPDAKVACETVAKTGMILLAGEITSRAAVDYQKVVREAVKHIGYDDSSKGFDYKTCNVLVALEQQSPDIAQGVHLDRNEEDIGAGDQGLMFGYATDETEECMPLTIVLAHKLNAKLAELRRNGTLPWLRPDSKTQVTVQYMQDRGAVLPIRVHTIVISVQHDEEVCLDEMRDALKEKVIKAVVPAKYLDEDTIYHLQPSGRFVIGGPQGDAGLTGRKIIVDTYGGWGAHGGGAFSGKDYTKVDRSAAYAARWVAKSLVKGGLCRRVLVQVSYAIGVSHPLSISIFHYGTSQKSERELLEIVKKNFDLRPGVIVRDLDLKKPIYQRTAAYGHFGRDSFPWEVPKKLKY

In the case of `Nc1nc2cc(CC[C@H]3C[C@@H](n4ccc5c(N)ncnc54)[C@H](O)[C@@H]3O)ccc2cc1Br` [JNJ‐64619178, reference compound], the “expression of FANCA DI-containing transcripts” value (FANCA) is reported as “increase of FANCA DI‐containing transcripts”, the TGI (HCT116 MTAP−/− xenograft) is reported as 54.0% and the “SDMA level (immunoblot)” value (SDMA [1]) is reported as “reduction of SDMA”. The “tumor SDMA levels” value (SDMA [2]) was “remarkable reduction”.

For `Nc1nc(=O)n(-c2ccccc2Cl)c2nc(C(F)(F)F)ccc12` [IDE397], the molecular responses [3] is given as 75%, the IC50 (MTAP−/− cancer cells) is given as ~20 nM and the IC50 (MAT2A [4]) is given as ~10 nM.

For `COc1ccc(-c2c(Nc3ccccn3)[nH]c3c(C4=CCCCC4)c(-c4ccccc4)nn3c2=O)cc1` [AG‐270, reference compound], the AUC0-24h free drug ([5]; calculated) is given as 3.829 µg·h/mL, the AUC(0-t) ([5]; Nu/Nu, mouse, oral, plasma, HCT116 MTAP−/− xenograft mice, read-out: AUC0-24h total) is given as 383 µg·h/mL and the IC50 (UGT1A1) is given as 1100 nM. For the same compound, the “effect on plasma total, direct and unconjugated bilirubin” value [6] was “remarkably increased”, the IC50 (A549) was 646 nM and the IC50 (NCI-H838) was 93.9 nM. It also gave an IC50 (HCT116 MTAP−/− cells [7]) of 300 nM, an IC50 (HCT116 WT cells) of 1220 nM and an IC50 (MIA PaCa-2) of 935 nM. The IC50 [8] was 1410 nM, the IC50 (HCT116 MTAP−/− cells [9]) was 5.8 nM and the TGI [10] was 52.0%.

For `CN(C)CCc1nnc2cc(-c3ccccc3)c3cc(Cl)ccc3n12` [PF‐9366], the IC50 [11] is given as ~10000 nM, the IC50 (MAT2A [12]) is given as 420 nM and the IC50 (Huh-7 cells) is given as ~10000 nM and 10000 nM.
